IC50 data for 37 compounds are collected here from patent US20240352046A1, “ECTONUCLEOTIDE PYROPHOSPHATASE-PHOSPHODIESTERASE-1 (ENPP1) INHIBITORS AND USES THEREOF” (1cBio, Inc., priority 2020, published 2024).

One may read the IC50 as the concentration that gives 50% inhibition.

Sequence of ENPP-1 (Ectonucleotide Pyrophosphatase/Phosphodiesterase 1) (P22413 whole entry): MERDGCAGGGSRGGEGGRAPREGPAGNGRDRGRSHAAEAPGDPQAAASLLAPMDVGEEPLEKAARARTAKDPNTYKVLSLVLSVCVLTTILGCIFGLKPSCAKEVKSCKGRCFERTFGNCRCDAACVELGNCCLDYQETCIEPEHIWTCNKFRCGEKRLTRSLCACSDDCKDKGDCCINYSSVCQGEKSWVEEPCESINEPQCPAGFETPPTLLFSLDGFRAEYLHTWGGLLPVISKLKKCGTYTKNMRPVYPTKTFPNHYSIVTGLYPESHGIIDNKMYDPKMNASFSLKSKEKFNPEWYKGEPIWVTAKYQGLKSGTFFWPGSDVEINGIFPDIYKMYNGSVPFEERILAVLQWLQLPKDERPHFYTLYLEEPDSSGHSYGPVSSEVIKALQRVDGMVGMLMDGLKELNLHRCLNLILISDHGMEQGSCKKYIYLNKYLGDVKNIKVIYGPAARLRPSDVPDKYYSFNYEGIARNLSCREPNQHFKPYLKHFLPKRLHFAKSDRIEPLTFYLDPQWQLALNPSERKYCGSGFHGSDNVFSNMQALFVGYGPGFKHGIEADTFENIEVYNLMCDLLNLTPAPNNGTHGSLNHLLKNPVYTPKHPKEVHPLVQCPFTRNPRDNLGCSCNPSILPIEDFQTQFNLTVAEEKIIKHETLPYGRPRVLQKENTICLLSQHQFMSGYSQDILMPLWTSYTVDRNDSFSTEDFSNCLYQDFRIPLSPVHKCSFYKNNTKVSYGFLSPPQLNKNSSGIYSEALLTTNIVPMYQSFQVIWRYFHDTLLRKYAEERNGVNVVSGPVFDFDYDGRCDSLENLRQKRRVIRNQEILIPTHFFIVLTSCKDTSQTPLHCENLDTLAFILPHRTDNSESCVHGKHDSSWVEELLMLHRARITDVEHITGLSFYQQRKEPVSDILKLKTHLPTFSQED

The target in this assay is ENPP-1 (Ectonucleotide Pyrophosphatase/Phosphodiesterase 1) (Homo sapiens (Human), UniProt P22413). The assay can be described thus: ENPP1 inhibition assay (AMP Glo, cGAMP substrate). In kind it is biochemical. The settings on record: cGAMP 20 μM substrate, ENPP1 1 nM. The protocol:
IC50 values of compounds against ENPP-1 (Ectonucleotide Pyrophosphatase/Phosphodiesterase 1) were determined at Integral BioSciences (India) using AMP Glo (Promega, Cat #V5011). Assay was performed in a 30 μL final volume in a white 96-well Half Area plate (Costar,Cat #3693). Dose response curve for the compounds were prepared in duplicates with starting conc. at 5 μM and a three-fold titration was performed. The reaction buffer consisted of 50 mM Tris (pH 8.0), 0.5 mM CaCl2), 1 μM ZnCl2, 250 mM NaCl and 0.1 mg/ml BSA. To the compound dilution, 15 μL of ENPP1 enzyme (R&D Systems; Cat #6136-EN-010) was added to each well (final conc. 1 nM) and the mix was pre-incubated for 15 min at RT. An equal volume (15 μL) containing cGAMP (Sigma, Cat #SML-1229) (final conc. 20 μM) was added to initiate the enzyme reaction and the reaction was incubated for 30 min at RT. The reaction was then stopped by heating at 90° C. for 3 minutes. 10 μl of reaction was then transferred to 384 well white, medium binding plates (Grenier, Cat #781075) to which 10 μl of AMP-Glo Reagent 1 was added and mixed well and incubated for 1 hour at 25° C. Following 60 min incubation, 20 μL of detection mixture was added to the enzyme reaction bringing the final volume to 40 μL. The reaction was further incubated for 60 min at RT after which the plates were read using BioTek Plate reader.
Analysis was done using the standard curve by non-linear regression, variable slope inhibitor curve fits (Graph-Pad Prism) and IC50's of compounds were determined wherever possible.
With `Cc1cc(Cl)n2ncnc(N3CC4(CC(N(C[C@@H](O)C(F)(F)F)S(N)(=O)=O)C4)C3)c12` (stereo in doubt) [Compound 1.125, N-(2-(7-chloro-5-methylpyrrolo[2,1-f][1,2,4]triazin-4-yl)-2-azaspiro[3.3]heptan-6-yl)-N-(3,3,3-trifluoro-2-hydroxypropyl)sulfamide], the IC50 was determined as 0.05 µM.

`Cc1cc(Cl)n2ncnc(N3CC4(CC(N(C[C@H](O)C(F)(F)F)S(N)(=O)=O)C4)C3)c12` (stereo in doubt) [Compound 1.126, N-(2-(7-chloro-5-methylpyrrolo[2,1-f][1,2,4]triazin-4-yl)-2-azaspiro[3.3]heptan-6-yl)-N-(3,3,3-trifluoro-2-hydroxypropyl)sulfamide] gave a concentration for half-maximal inhibition (IC50) of 0.023 µM.

For `COc1cc2[nH]c(=O)nc(N3CC(CCNS(N)(=O)=O)C3)c2cc1OC` [Compound 1.2, (2-(1-(6,7-dimethoxy-2-oxo-1,2-dihydroquinazolin-4-yl)azetidin-3-yl)ethyl)amiosulfonamide], the IC50 was over 5 µM. As to `COc1cc2c(N3CC(CCNS(N)(=O)=O)C3)ncnc2cn1` [Compound 1.3, (2-(1-(6-methoxypyrido[3,4-d]pyrimidin-4-yl)azetidin-3-yl)ethyl)aminisulfonamide], the IC50 was 0.22 µM.

As to `COc1cccc2c(N3CC(CCNS(N)(=O)=O)C3)ncnc12` [Compound 1.4, (2-(1-(8-methoxyquinazolin-4-yl)azetidin-3-yl)ethyl)aminosulfonamide], the IC50 amounted to 0.072 µM.

With `COc1cc2ncnc(N3CC(CCC(=O)O)C3)c2cc1OC` [Compound 1.5, 3-(1-(6,7-dimethoxyquinazolin-4-yl)azetidin-3-yl)propanoic acid], the IC50 is 0.16 µM. For `COc1ccc2c(N3CC(CCNS(N)(=O)=O)C3)ncnc2c1` [Compound 1.8, (2-(1-(7-methoxyquinazolin-4-yl)azetidin-3-yl)ethyl)aminisulfonamide], the half-maximal inhibitory concentration (IC50) was 0.008 µM. For `COc1cccc2c(N3CC(CCNS(N)(=O)=O)C3)c(C#N)cnc12` [Compound 1.9, (2-(1-(3-cyano-8-methoxyquinolin-4-yl)azetidin-3-yl)ethyl)aminisulfonamide] the value was 0.032 µM; for `COc1cc2ncnc(N3CC(CNS(N)(=O)=O)C3)c2cc1OC` [Compound 1.10, N-((1-(6,7-dimethoxyquinazolin-4-yl)azetidin-3-yl)methyl) aminisulfonamide], 0.028 µM. For `COc1cc2nccc(N3CC(CCNS(N)(=O)=O)C3)c2cc1OC` [Compound 1.11, (2-(1-(6,7-dimethoxyquinolin-4-yl)azetidin-3-yl)ethyl)aminosulfonamide] the value was 0.09 µM; for `COc1cc2ncc(C#N)c(N3CC(CCNS(N)(=O)=O)C3)c2cc1OC` [Compound 1.12, (2-(1-(3-cyano-6,7-dimethoxyquinolin-4-yl)azetidin-3-yl)ethyl)aminisulfonamide], 0.004 µM; for `COc1ccc2c(N3CC(CCNS(N)(=O)=O)C3)c(C#N)cnc2c1` [Compound 1.13, 4-(3-(2-sulfamoylaminoethyl)azetidine-1-yl)-7-methoxyquinoline-3-carbonitrile], 0.011 µM. Turning to `Cn1ccc2ncnc(N3CC(CCNS(N)(=O)=O)C3)c21` [Compound 1.14, 4-(3-(2-sulfamoylaminoethyl)azetidine-1-yl)-5-methyl-5H-pyrrolo[3,2-d]pyrimidine], the IC50 worked out at 0.12 µM. This IC50 is about 11-fold higher than that of the compound before.

Regarding `COc1cc2ncnc(N3CC4(CC(NS(N)(=O)=O)C4)C3)c2cc1OC` [Compound 1.15, 4-(6-sulfamoylamino-2-azaspiro[3.3]heptan-2-yl)-6,7-dimethoxyquinazoline], the concentration for half-maximal inhibition (IC50) worked out at 0.005 µM. For `COc1ccc2ncnc(N3CC(CCNS(N)(=O)=O)C3)c2c1` [Compound 1.16, 4-(3-(2-sulfamoylaminoethyl)azetidine-1-yl)-6-methoxyquinazoline] the value was 0.076 µM; for `NS(=O)(=O)NCCC1CN(c2ncnc3cc4c(cc23)OCO4)C1` [Compound 1.18, 8-(3-(2-sulfamoylaminoethyl)azetidine-1-yl)-[1,3]dioxolo[4,5-g]quinazoline], over 3 µM. For `COc1cc2ncc(C#N)c(N3CC4(CC(NS(N)(=O)=O)C4)C3)c2cc1OC` [Compound 1.24, 4-(6-sulfamoylamino-2-azaspiro[3.3]heptan-2-yl)-6,7-dimethoxyquinoline-3-carbonitrile] the value was 0.002 µM. `COc1cc2nc(C3CC3)nc(N3CC(CCNS(N)(=O)=O)C3)c2cc1OC` [Compound 1.25, 4-(3-(2-sulfamoylaminoethyl)azetidine-1-yl)-2-cyclopropyl-6,7-dimethoxyquinazoline] showed a concentration for half-maximal inhibition (IC50) of 0.66 µM. As for `COc1cc2ncnc(N3CC(CCP(=O)(O)O)C3)c2cc1OC` [Compound 1.29, 2-(1-(6,7-dimethoxyquinazolin-4-yl)azetidin-3-yl)ethylphosphonic acid], the IC50 came to 0.892 µM. This IC50 and that of the compound before are within 1.5-fold of each other. With `COc1ccc2c(N3CC(CCNS(N)(=O)=O)C3)ncnc2c1OC` [Compound 1.31, 4-(3-(2-sulfamoylaminoethyl)azetidine-1-yl)-7,8-dimethoxyquinazoline], the IC50 was over 3 µM. For `Cn1cnc2c(F)c3ncnc(N4CC(CCNS(N)(=O)=O)C4)c3cc21` [Compound 1.32, 8-(3-(2-sulfamoylaminoethyl)azetidine-1-yl)-4-fluoro-1-methyl-1H-imidazo[4,5-g]quinazoline] the value was over 3 µM.

`COc1cc2nc(-c3ccc(F)cc3)nc(N3CC(CCNS(N)(=O)=O)C3)c2cc1OC` [Compound 1.33, 4-(3-(2-sulfamoylaminoethyl)azetidine-1-yl)-2-(4-fluorophenyl)-6,7-dimethoxyquinazoline] returned a 50% inhibitory concentration (IC50) of 0.248 µM. For `COc1ccc2c(N3CC(CCNS(N)(=O)=O)C3)nc(-c3ccccc3)nc2c1` [Compound 1.34, 4-(3-(2-sulfamoylaminoethyl)azetidine-1-yl)-7-methoxy-2-phenylquinazoline] the value was over 3 µM; for `COc1cc2nc(-c3ccn(C)n3)nc(N3CC(CCNS(N)(=O)=O)C3)c2cc1OC` [Compound 1.36, 6,7-dimethoxy-2-(1-methylpyrazol-3-yl)-4-[3-[2-(sulfamoylamino)ethyl]azetidin-1-yl]quinazoline], 0.464 µM. `CCc1nc(N2CC(CCNS(N)(=O)=O)C2)c2ccc(OC)cc2n1` [Compound 1.37, 2-ethyl-7-methoxy-4-[3-[2-(sulfamoylamino)ethyl]azetidin-1-yl]quinazoline]: the IC50 was over 3 µM.

Consider `COc1cc(F)cc2c(N3CC(CCNS(N)(=O)=O)C3)ncnc12` [Compound 1.38], for which the half-maximal inhibitory concentration (IC50) was over 3 µM. In turn, `COc1cc2ncnc(N3CC(CCNS(N)(=O)=O)C3)c2cc1Br` [Compound 1.41, 4-(3-(2-sulfamoylaminoethyl)azetidine-1-yl)-6-bromo-7-methoxyquinazoline] had a concentration for half-maximal inhibition (IC50) of 0.737 µM.

Consider `COc1ccc2c(N3CC(CCNS(N)(=O)=O)C3)nc(-c3cccnc3)nc2c1` [Compound 1.44, 4-(3-(2-sulfamoylaminoethyl)azetidine-1-yl)-7-methoxy-2-(pyridin-3-yl)quinazoline], for which the 50% inhibitory concentration (IC50) was over 3 µM.

In turn, `COc1ccc2c(N3CC(CCNS(N)(=O)=O)C3)nc(C34CC5CC(CC(C5)C3)C4)nc2c1` [Compound 1.45, 2-(1-adamantyl)-7-methoxy-4-[3-[2-(sulfamoylamino)ethyl]azetidin-1-yl]quinazoline] registered an IC50 of over 3 µM. The compound `COc1cc2ncnc(N3CC4(CC(CB(O)O)C4)C3)c2cc1OC` [Compound 1.53, (2-(6,7-dimethoxyquinazolin-4-yl)-2-azaspiro[3.3]heptan-6-yl)methylboronic acid] had a half-maximal inhibitory concentration (IC50) of 0.122 µM. On to `COc1cc2ncnc(N3CC(CCNS(N)(=O)=O)C3)c2cc1C` [Compound 1.54, N-(2-[1-(7-methoxy-6-methylquinazolin-4-yl)azetidin-3-yl]ethyl)sulfuric diamide], for which the IC50 turned out to be 1.68 µM. This IC50 is about 14-fold higher than that of the compound before. With `COc1cc2ncnc(N3CC(/C=C/S(N)(=O)=O)C3)c2cc1OC` [Compound 1.55, (E)-2-(1-(6,7-dimethoxyquinazolin-4-yl)azetidin-3-yl)ethenesulfonamide] the figure was 0.036 µM.

Take `COc1ccc2c(N3CC(CCCS(N)(=O)=O)C3)ncnc2c1` [Compound 1.56, 3-(1-(7-methoxyquinazolin-4-yl)azetidin-3-yl)propane-1-sulfonamide]: the IC50 turned out to be 0.085 µM.

The compound `COc1cc2ncnc(N3CC(CCNS(N)(=O)=O)(c4ccccc4)C3)c2cc1OC` [Compound 1.58, 4-3-(2-(sulfamoylamino)ethyl)-3-phenylazetidin-1-yl-6,7-dimethoxyquinazoline] had an IC50 of 0.66 µM. For `Cc1ccn2ncnc(N3CC(CCB(O)O)C3)c12` [Compound 1.59, 2-(1-(5-methylpyrrolo[1,2-f][1,2,4]triazin-4-yl)azetidin-3-yl)ethylboronic acid] the value was over 3 µM; for `CCc1nc(N2CC(CCNS(N)(=O)=O)C2)c2cc(OC)c(OC)cc2n1` [Compound 1.61, 2-ethyl-6,7-dimethoxy-4-[3-[2-(sulfamoylamino)ethyl]azetidin-1-yl]quinazoline], 0.097 µM.

`Cc1ccn2ncnc(N3CC4(CC(NS(N)(=O)=O)C4)C3)c12` [Compound 1.62]: the midpoint of inhibition, the IC50, lay at 0.067 µM.
